In patent US4035503A, “Xanthene and thioxanthene derivatives, compositions thereof and a method of preparation thereof” (Kefalas A/S, priority 1973, dated 1977):
Where two headings read alike, the source gives them in different places.

Test system: methylphenidate
Experiment: Methylphenidate antagonism in mice (antagonism of biting of corrugated paper)
Format: in vivo, NMRI male mice
Conditions: for ED50: Mus musculus; for ED50 / Methylphenidate antagonism, duration of peak effect: mice; for Methylphenidate antagonism, comparison in words (peak effect and duration): compared within the table, with known substances
Excerpt: The test may briefly be described as follows:
As animals were used NMRI male mice weighting 18-25 grams.
5 × 2 mice are used for each dose level.
[…] At each time interval separate groups of mice were used. After administration of methylphenidate the mice are placed in the observation cages, 2 in each cage, where they remain for one hour. The cages are placed on corrugated paper, the corrugations facing upwards. It is examined whether or not the mice have been biting the corrugated paper. […] At each time interval separate groups of mice were used. The peak effect was determined for the test substances and also for a number of known neuroleptics.
The test was carried out on a number of the novel compounds of Formula I and on a number of closely related thiaxanthene derivatives.

[1] = ip, i.p. test substance, 24 h after administration, read-out: Methylphenidate antagonism, ED50 24 h i.p.
[2] = route p.c. [sic], at peak effect, read-out: Methylphenidate antagonism, Peak effect ED50 p.c.

Row | Compound | ED50 [1] [mg/kg] | ED50 [2] [mg/kg] | Methylphenidate antagonism, comparison in words (peak effect and duration) | Methylphenidate antagonism, duration of peak effect (i.p. test substance) [h]
1 | CN(C)CC=CC1c2ccccc2Sc2ccc(Cl)cc21 (stereo not drawn) [Lu 8-030, 2-Chloro-9-(3-dimethylamino-1-propenyl)-thioxanthene] | > 20 | 5.5 | a more prolonged activity while the peak effect remains at the same level or is somewhat higher | 3
2 | OCCN1CCN(CC/C=C2/c3ccccc3Sc3ccc(C(F)(F)F)cc32)CC1 [α-flupenthixol, 9-[3-(4-(2-hydroxyethyl)piperazinyl-(1))-propylidene]-2-trifluoromethyl-thioxanthene, reference compound] | > 20 | 0.22 | – | 6
3 | OCCN1CCN(CC=CC2c3ccc(F)cc3Sc3ccc(C(F)(F)F)cc32)CC1 (stereo not drawn) [Lu 10-153, 2-Trifluoromethyl-6-fluoro-9-(3-(4-(2-hydroxyethyl)piperazine1-yl)-1-propenyl)thioxanthene] | 0.06 | 0.03 | unique in combining at the same time the most potent peak effect but also the long lasting effect | 30
4 | OCCC1CCN(CC=CC2c3ccc(F)cc3Sc3ccc(C(F)(F)F)cc32)CC1 (stereo not drawn) [Lu 12-001] | 0.1 | 0.2 | – | 72
5 | OCCN1CCN(CC=CC2c3ccccc3Sc3ccc(C(F)(F)F)cc32)CC1 (stereo not drawn) [Lu 9-212, 2-Trifluoromethyl-9-(3-(4-(2-hydroxyethyl)-piperazin-1-yl)-1propenyl) thioxanthene] | > 10 | 0.13 | a more prolonged activity while the peak effect remains at the same level or is somewhat higher | 10
6 | OCCC1CCN(CC=CC2c3ccc(F)cc3Oc3ccc(C(F)(F)F)cc32)CC1 (stereo not drawn) [Lu 11-200, 2-Trifluoromethyl-6-fluoro-9-(3-(4-(2-hydroxyethyl)piperidin-1-yl)-1-propenyl) xanthene] | 1.6 | 0.2 | – | 17
7 | CN(C)CC/C=C1/c2ccccc2Sc2ccc(Cl)cc21 [α-chlorprothixen, trans-9-(3-dimethylaminopropylidene)-2-chloro-thioxanthene, reference compound] | > 20 | 2.6 | – | 2
8 | CN(C)CC=CC1c2ccc(F)cc2Sc2ccc(C(F)(F)F)cc21 (stereo not drawn) [Lu 11-186, 2-Trifluoromethyl-6-fluoro-9-(3-dimethylamino-1-propenyl)-thioxanthene] | – | 0.08 | – | 8
9 | OCCN1CCN(CC/C=C2/c3ccccc3Sc3ccc(Cl)cc32)CC1 [α-clopenthixol, 9-[3-(4-(2-hydroxyethyl)piperazinyl-(1))-propylidene]-2-chloro-thioxanthene, reference compound] | > 20 | 1.3 | – | 6
10 | OCCN1CCN(CC=CC2c3ccccc3Sc3ccc(Cl)cc32)CC1 (stereo not drawn) [Lu 9-244, 2-Chloro-9-(3-(4-(2-hydroxyethyl)piperazin-1-yl)-1-propenyl) thioxanthene] | 14.1 | 0.22 | a more prolonged activity while the peak effect remains at the same level or is somewhat higher | 10
